{"source": "paper PMC5736175", "about": "“Nicotinic alpha 7 receptor agonists EVP-6124 and BMS-933043, attenuate scopolamine-induced deficits in visuo-spatial paired associates learning” (PLoS ONE, 2017)", "test_system": "scopolamine-treated cynomolgus monkeys", "experiment": "Scopolamine-induced impairment of vsPAL task performance, treatment + scopolamine", "assay_type": "in vivo, cynomolgus monkeys (Macaca Fasicularis)", "procedure": "Doses cited refer to the free base form of the compounds. […] All drugs were administered intramuscularly (i.m.) in a dosing volume of 0.1–0.2 ml/kg.\nOn days when compound testing occurred, approximately half the cohort received one dose and the remainder another dose of the same compound and therefore dose order was staggered between animals. With the exception of EVP-6124, all other compounds were tested in a single dose response study.\nCohen’s d values of >0.2, >0.5 and >0.8 are described using the conventions of small, medium, and large effects, respectively.", "key": {"[1]": {"conditions": "0.3 mg/kg + scopolamine vs vehicle+scopolamine, eventual accuracy, 4-stimuli"}, "[2]": {"conditions": "Donepezil 0.03 mg/kg + Scopolamine, group MEAN of 6 animals"}, "[3]": {"conditions": "Donepezil 0.03 mg/kg + Scopolamine, individual animals"}, "[4]": {"conditions": "Donepezil 0.1 mg/kg + Scopolamine, group MEAN of 6 animals"}, "[5]": {"conditions": "Donepezil 0.1 mg/kg + Scopolamine, individual animals"}, "[6]": {"conditions": "Donepezil 0.3 mg/kg + Scopolamine, group MEAN (one animal without value)"}, "[7]": {"conditions": "Donepezil 0.3 mg/kg + Scopolamine, group MEAN of 6 animals"}, "[8]": {"conditions": "Donepezil 0.3 mg/kg + Scopolamine, individual animals"}, "[9]": {"conditions": "all doses of the study, for EVP-6124 study (1)"}, "[10]": {"conditions": "compound 0.03 mg/kg i.m. + Scopolamine"}, "[11]": {"conditions": "compound 0.10 mg/kg i.m. + Scopolamine"}, "[12]": {"conditions": "compound 0.30 mg/kg i.m. + Scopolamine"}}, "note": "Where “and” joins values, the source holds several entries; their conditions need not be identical. Equal entries are not always repeated. Entries after “also recorded” stand apart in the source; their conditions may differ. Structures can show the parent of a compound that is named as a salt."}
{"smiles": "COc1cc2c(cc1OC)C(=O)C(CC1CCN(Cc3ccccc3)CC1)C2", "note": "(centres unmarked) [Donepezil, Donepezil hydrochloride]", "values": [{"measurement": "Cohen's d", "setting": "[1]", "value": "1.2 and 1.199"}, {"measurement": "effect r", "setting": "[1]", "value": 0.514}, {"measurement": "effect on scopolamine-induced impairment of eventual accuracy", "setting": "0.3 mg/kg i.m., 4-stimuli condition", "value": "significantly ameliorated; also recorded: significantly reversed"}, {"measurement": "mean (cohen's d calculations)", "setting": "0.3 mpk + scop, eventual correct, 4-stimuli condition", "value": 68.7}, {"measurement": "% Completion", "setting": "[2]", "value": 79.4, "unit": "%"}, {"measurement": "Average Response Latency", "setting": "[2]", "value": 2339.5, "unit": "ms"}, {"measurement": "Eventual Correct, 2 Stimuli", "setting": "[2]", "value": 100.0, "unit": "%"}, {"measurement": "Eventual Correct, 3 Stimuli", "setting": "[2]", "value": 86.7, "unit": "%"}, {"measurement": "Eventual Correct, 4 Stimuli", "setting": "[2]", "value": 42.1, "unit": "%"}, {"measurement": "Eventual Correct, Overall Mean % Correct", "setting": "[2]", "value": 76.2, "unit": "%"}, {"measurement": "Initial Correct, 3 Stimuli", "setting": "[2]", "value": 58.3, "unit": "%"}, {"measurement": "Initial Correct, 4 Stimuli", "setting": "[2]", "value": 16.7, "unit": "%"}, {"measurement": "Initial Correct, Overall Mean % Correct", "setting": "[2]", "value": 52.2, "unit": "%"}, {"measurement": "Initial correct, 2 Stimuli", "setting": "[2]", "value": 81.7, "unit": "%"}, {"measurement": "% Completion", "setting": "[3]", "value": "76.8% and 57.3% and 85.4% and 84.6% and 100.0% and 72.4%"}, {"measurement": "Average Response Latency", "setting": "[3]", "value": "2796.9 ms and 1893.7 ms and 2469.8 ms and 2357.9 ms and 2353.0 ms"}, {"measurement": "Eventual Correct, 2 Stimuli", "setting": "[3]", "value": 100.0, "unit": "%"}, {"measurement": "Eventual Correct, 3 Stimuli", "setting": "[3]", "value": "90.0% and 80.0% and 50.0% and 100.0%"}, {"measurement": "Eventual Correct, 4 Stimuli", "setting": "[3]", "value": "30.0% and 12.5% and 0.0% and 80.0% and 70.0% and 60.0%"}, {"measurement": "Eventual Correct, Overall Mean % Correct", "setting": "[3]", "value": "73.3% and 64.2% and 50.0% and 93.3% and 90.0% and 86.7%"}, {"measurement": "Initial Correct, 3 Stimuli", "setting": "[3]", "value": "50.0% and 70.0% and 40.0% and 60.0% and 90.0%"}, {"measurement": "Initial Correct, 4 Stimuli", "setting": "[3]", "value": "10.0% and 0.0% and 30.0%"}, {"measurement": "Initial Correct, Overall Mean % Correct", "setting": "[3]", "value": "50.0% and 56.7% and 36.7% and 46.7% and 73.3%"}, {"measurement": "Initial correct, 2 Stimuli", "setting": "[3]", "value": "90.0% and 100.0% and 70.0% and 60.0%"}, {"measurement": "% Completion", "setting": "[4]", "value": 80.6, "unit": "%"}, {"measurement": "Average Response Latency", "setting": "[4]", "value": 2361.5, "unit": "ms"}, {"measurement": "Eventual Correct, 2 Stimuli", "setting": "[4]", "value": 98.3, "unit": "%"}, {"measurement": "Eventual Correct, 3 Stimuli", "setting": "[4]", "value": 90.0, "unit": "%"}, {"measurement": "Eventual Correct, 4 Stimuli", "setting": "[4]", "value": 50.0, "unit": "%"}, {"measurement": "Eventual Correct, Overall Mean % Correct", "setting": "[4]", "value": 79.4, "unit": "%"}, {"measurement": "Initial Correct, 3 Stimuli", "setting": "[4]", "value": 63.3, "unit": "%"}, {"measurement": "Initial Correct, 4 Stimuli", "setting": "[4]", "value": 30.0, "unit": "%"}, {"measurement": "Initial Correct, Overall Mean % Correct", "setting": "[4]", "value": 57.2, "unit": "%"}, {"measurement": "Initial correct, 2 Stimuli", "setting": "[4]", "value": 78.3, "unit": "%"}, {"measurement": "% Completion", "setting": "[5]", "value": "70.7% and 75.0% and 77.6% and 100.0% and 96.4% and 63.8%"}, {"measurement": "Average Response Latency", "setting": "[5]", "value": "2305.7 ms and 2751.0 ms and 1701.8 ms and 2272.3 ms and 2849.3 ms and 2289.1 ms"}, {"measurement": "Eventual Correct, 2 Stimuli", "setting": "[5]", "value": "90.0% and 100.0%"}, {"measurement": "Eventual Correct, 3 Stimuli", "setting": "[5]", "value": "60.0% and 90.0% and 100.0%"}, {"measurement": "Eventual Correct, 4 Stimuli", "setting": "[5]", "value": "0.0% and 90.0% and 50.0% and 60.0%"}, {"measurement": "Eventual Correct, Overall Mean % Correct", "setting": "[5]", "value": "50.0% and 93.3% and 80.0% and 83.3% and 86.7%"}, {"measurement": "Initial Correct, 3 Stimuli", "setting": "[5]", "value": "90.0% and 80.0% and 40.0% and 20.0% and 70.0%"}, {"measurement": "Initial Correct, 4 Stimuli", "setting": "[5]", "value": "50.0% and 30.0% and 0.0% and 40.0%"}, {"measurement": "Initial Correct, Overall Mean % Correct", "setting": "[5]", "value": "76.7% and 70.0% and 36.7% and 63.3% and 33.3%"}, {"measurement": "Initial correct, 2 Stimuli", "setting": "[5]", "value": "90.0% and 100.0% and 70.0% and 50.0%"}, {"measurement": "Eventual Correct, 4 Stimuli", "setting": "[6]", "value": 68.7, "unit": "%"}, {"measurement": "Initial Correct, 4 Stimuli", "setting": "[6]", "value": 28.2, "unit": "%"}, {"measurement": "Average Response Latency", "setting": "[7]", "value": 2371.0, "unit": "ms"}, {"measurement": "Eventual Correct, 2 Stimuli", "setting": "[7]", "value": 98.3, "unit": "%"}, {"measurement": "Eventual Correct, 3 Stimuli", "setting": "[7]", "value": 85.0, "unit": "%"}, {"measurement": "Eventual Correct, Overall Mean % Correct", "setting": "[7]", "value": 84.9, "unit": "%"}, {"measurement": "Initial Correct, 3 Stimuli", "setting": "[7]", "value": 63.3, "unit": "%"}, {"measurement": "Initial Correct, Overall Mean % Correct", "setting": "[7]", "value": 58.4, "unit": "%"}, {"measurement": "Initial correct, 2 Stimuli", "setting": "[7]", "value": 80.0, "unit": "%"}, {"measurement": "% Completion", "setting": "[8]", "value": "41.3% and 69.1% and 98.4% and 98.6% and 98.3% and 61.0%"}, {"measurement": "Average Response Latency", "setting": "[8]", "value": "2379.3 ms and 1959.4 ms and 2184.7 ms and 2330.5 ms and 2840.5 ms and 2531.9 ms"}, {"measurement": "Eventual Correct, 2 Stimuli", "setting": "[8]", "value": "100.0% and 90.0%"}, {"measurement": "Eventual Correct, 3 Stimuli", "setting": "[8]", "value": "70.0% and 90.0% and 100.0%"}, {"measurement": "Eventual Correct, 4 Stimuli", "setting": "[8]", "value": "60.0% and 80.0% and 90.0% and 33.3%"}, {"measurement": "Eventual Correct, Overall Mean % Correct", "setting": "[8]", "value": "85.0% and 83.3% and 93.3% and 90.0% and 86.7% and 71.1%"}, {"measurement": "Initial Correct, 3 Stimuli", "setting": "[8]", "value": "50.0% and 80.0% and 70.0% and 60.0%"}, {"measurement": "Initial Correct, 4 Stimuli", "setting": "[8]", "value": "20.0% and 50.0% and 40.0% and 11.1%"}, {"measurement": "Initial Correct, Overall Mean % Correct", "setting": "[8]", "value": "50.0% and 66.7% and 53.3% and 63.3% and 50.4%"}, {"measurement": "Initial correct, 2 Stimuli", "setting": "[8]", "value": "50.0% and 100.0% and 80.0% and 90.0%"}, {"measurement": "Holm-Sidak Post-Hoc, Treatment+Scopolamine differs from Vehicle+Scopolamine: percent correct on initial attempt, 3-stimuli", "setting": "all doses of the study", "value": "n.s."}, {"measurement": "Holm-Sidak Post-Hoc, Treatment+Scopolamine differs from Vehicle+Scopolamine: Choice Response Latency", "setting": "[9]", "value": "n.s."}, {"measurement": "Holm-Sidak Post-Hoc, Treatment+Scopolamine differs from Vehicle+Scopolamine: Percent Task Completed", "setting": "[9]", "value": "n.s."}, {"measurement": "Holm-Sidak Post-Hoc, Treatment+Scopolamine differs from Vehicle+Scopolamine: percent correct on initial attempt, 2-stimuli", "setting": "[9]", "value": "n.s."}, {"measurement": "Holm-Sidak Post-Hoc, Treatment+Scopolamine differs from Vehicle+Scopolamine: percent correct on initial attempt, 4 stimuli", "setting": "[9]", "value": "n.s."}, {"measurement": "Percent Correct on Initial Attempt (SEM), 2 stimuli", "setting": "[10]", "value": "81.7% (7.0%)"}, {"measurement": "Percent Correct on Initial Attempt (SEM), 3 stimuli", "setting": "[10]", "value": "58.3% (7.9%)"}, {"measurement": "Percent Correct on Initial Attempt (SEM), 4 stimuli", "setting": "[10]", "value": "16.7% (6.1%)"}, {"measurement": "Percent Correct on Initial Attempt (SEM), 2 stimuli", "setting": "[11]", "value": "78.3% (7.5%)"}, {"measurement": "Percent Correct on Initial Attempt (SEM), 3 stimuli", "setting": "[11]", "value": "63.3% (11.2%)"}, {"measurement": "Percent Correct on Initial Attempt (SEM), 4 stimuli", "setting": "[11]", "value": "30.0% (6.8%)"}, {"measurement": "Percent Correct on Initial Attempt (SEM), 2 stimuli", "setting": "[12]", "value": "80.0% (6.8%)"}, {"measurement": "Percent Correct on Initial Attempt (SEM), 3 stimuli", "setting": "[12]", "value": "63.3% (4.2%)"}, {"measurement": "Percent Correct on Initial Attempt (SEM), 4 stimuli", "setting": "[12]", "value": "28.2% (7.2%)"}]}
